In ChEMBL document CHEMBL5291721, “A preclinical secondary pharmacology resource illuminates target-adverse drug reaction associations of marketed drugs” (Nat Commun, 2023) one finds AC50 data, which are given here for 24 compounds.

Test [1] has as its target T1, Muscarinic acetylcholine receptor M1 (Homo sapiens, UniProt P11229).
T1 sequence (P11229 whole entry): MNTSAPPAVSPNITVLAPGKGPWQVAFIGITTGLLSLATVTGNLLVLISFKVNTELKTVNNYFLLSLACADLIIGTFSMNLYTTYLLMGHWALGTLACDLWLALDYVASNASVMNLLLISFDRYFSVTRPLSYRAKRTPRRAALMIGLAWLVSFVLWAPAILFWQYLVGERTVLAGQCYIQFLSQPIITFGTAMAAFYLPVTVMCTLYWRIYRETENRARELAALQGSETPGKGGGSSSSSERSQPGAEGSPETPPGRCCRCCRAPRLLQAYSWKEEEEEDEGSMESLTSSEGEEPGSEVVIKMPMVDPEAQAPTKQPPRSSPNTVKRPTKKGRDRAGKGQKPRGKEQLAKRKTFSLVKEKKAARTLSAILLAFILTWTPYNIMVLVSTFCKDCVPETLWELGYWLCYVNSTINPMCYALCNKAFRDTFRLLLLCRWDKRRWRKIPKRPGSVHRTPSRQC
Type of test: functional.

In a further test the target is T2, Estrogen receptor (Homo sapiens, UniProt P03372).
T2 sequence (P03372 whole entry): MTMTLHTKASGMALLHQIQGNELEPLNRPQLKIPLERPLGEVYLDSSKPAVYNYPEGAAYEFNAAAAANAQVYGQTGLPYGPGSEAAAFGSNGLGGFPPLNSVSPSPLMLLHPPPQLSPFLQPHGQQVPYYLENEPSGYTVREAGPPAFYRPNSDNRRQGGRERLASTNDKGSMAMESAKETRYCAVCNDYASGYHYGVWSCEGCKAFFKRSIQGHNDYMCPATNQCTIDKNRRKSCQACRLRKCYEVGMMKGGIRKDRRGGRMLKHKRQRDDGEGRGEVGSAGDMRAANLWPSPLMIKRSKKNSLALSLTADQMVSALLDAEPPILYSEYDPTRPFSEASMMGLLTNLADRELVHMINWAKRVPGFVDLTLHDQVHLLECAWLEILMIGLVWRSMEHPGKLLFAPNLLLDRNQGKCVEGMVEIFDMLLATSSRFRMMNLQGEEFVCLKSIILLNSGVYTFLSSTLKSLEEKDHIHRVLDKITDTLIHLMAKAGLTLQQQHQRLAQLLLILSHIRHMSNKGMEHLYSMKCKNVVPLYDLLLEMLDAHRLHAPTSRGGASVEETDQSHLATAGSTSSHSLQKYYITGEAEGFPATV

For another test, the target named is Histamine H1 receptor (Homo sapiens, UniProt P35367).
Chain of Histamine H1 receptor (P35367 whole entry): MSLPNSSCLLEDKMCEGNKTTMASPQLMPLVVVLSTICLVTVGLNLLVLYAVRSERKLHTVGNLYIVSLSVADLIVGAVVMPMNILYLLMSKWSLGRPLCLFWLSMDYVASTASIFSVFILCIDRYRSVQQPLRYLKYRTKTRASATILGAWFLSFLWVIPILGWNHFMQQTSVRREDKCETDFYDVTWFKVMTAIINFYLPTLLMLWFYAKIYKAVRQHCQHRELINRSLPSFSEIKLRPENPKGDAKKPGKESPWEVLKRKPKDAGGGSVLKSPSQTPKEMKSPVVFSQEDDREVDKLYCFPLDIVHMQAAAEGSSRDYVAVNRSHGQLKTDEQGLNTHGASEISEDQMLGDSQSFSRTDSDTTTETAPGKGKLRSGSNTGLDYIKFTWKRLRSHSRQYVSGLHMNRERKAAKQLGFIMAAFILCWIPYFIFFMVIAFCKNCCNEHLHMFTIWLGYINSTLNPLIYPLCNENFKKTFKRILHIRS
The next test addresses Vasopressin V1a receptor (Homo sapiens, UniProt P37288).
The target in test [2] is T3, Equilibrative nucleoside transporter 1 (Homo sapiens, UniProt Q99808).
T3 sequence (Q99808 whole entry): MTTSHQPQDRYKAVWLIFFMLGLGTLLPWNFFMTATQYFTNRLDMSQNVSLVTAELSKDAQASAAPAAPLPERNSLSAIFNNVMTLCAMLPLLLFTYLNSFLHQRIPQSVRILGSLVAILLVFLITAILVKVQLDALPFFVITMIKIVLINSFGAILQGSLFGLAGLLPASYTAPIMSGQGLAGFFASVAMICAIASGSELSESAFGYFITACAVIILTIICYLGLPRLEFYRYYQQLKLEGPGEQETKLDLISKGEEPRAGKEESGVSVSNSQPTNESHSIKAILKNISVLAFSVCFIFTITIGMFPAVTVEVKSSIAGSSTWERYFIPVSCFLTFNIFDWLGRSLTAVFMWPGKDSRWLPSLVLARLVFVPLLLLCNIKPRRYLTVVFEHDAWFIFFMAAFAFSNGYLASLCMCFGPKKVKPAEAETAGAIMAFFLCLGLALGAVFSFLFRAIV

In another test the target is T4, Progesterone receptor (Homo sapiens, UniProt P06401).
T4 sequence (P06401 whole entry): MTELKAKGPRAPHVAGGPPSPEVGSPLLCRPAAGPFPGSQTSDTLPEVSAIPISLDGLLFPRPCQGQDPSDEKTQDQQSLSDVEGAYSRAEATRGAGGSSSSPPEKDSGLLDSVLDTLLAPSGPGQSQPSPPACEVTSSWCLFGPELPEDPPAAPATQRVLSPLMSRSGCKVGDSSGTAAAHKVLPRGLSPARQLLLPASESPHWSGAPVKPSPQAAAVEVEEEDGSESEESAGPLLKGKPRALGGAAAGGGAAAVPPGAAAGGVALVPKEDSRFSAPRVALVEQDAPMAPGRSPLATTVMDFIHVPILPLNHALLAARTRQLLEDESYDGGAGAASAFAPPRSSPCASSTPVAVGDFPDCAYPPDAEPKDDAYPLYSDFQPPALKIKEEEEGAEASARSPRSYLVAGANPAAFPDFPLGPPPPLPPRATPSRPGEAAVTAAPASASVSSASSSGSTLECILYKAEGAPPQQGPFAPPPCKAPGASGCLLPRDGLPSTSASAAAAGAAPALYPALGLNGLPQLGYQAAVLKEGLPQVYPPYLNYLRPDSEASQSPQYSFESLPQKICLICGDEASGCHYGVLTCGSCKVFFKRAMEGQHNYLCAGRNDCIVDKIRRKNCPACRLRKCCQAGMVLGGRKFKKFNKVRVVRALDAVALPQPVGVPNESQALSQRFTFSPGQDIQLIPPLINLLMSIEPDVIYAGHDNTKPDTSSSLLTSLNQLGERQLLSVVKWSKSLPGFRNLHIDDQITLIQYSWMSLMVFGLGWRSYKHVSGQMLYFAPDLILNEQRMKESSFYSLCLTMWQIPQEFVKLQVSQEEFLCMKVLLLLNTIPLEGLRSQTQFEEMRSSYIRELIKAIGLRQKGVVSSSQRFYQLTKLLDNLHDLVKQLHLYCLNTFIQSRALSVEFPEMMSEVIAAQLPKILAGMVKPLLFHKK
Type of test: functional.

Another test deals with Cannabinoid receptor 1 (Homo sapiens, UniProt P21554). Type of test: functional, cell-based.
Chain of Cannabinoid receptor 1 (P21554 whole entry): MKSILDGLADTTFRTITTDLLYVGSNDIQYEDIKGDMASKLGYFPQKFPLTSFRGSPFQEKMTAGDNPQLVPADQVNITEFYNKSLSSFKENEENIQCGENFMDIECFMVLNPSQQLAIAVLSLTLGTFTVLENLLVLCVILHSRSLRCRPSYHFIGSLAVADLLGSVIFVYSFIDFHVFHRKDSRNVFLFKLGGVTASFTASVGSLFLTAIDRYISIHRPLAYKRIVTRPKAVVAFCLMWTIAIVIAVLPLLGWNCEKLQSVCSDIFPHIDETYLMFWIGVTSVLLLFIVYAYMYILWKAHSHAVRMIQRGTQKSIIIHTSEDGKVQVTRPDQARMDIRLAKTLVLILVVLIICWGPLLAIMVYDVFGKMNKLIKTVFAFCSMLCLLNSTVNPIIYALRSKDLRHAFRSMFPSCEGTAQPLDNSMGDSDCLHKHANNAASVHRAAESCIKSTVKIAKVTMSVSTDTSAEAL

Structures are written as SMILES.
Further: assay procedure not described here.

Chain of Vasopressin V1a receptor (P37288 whole entry): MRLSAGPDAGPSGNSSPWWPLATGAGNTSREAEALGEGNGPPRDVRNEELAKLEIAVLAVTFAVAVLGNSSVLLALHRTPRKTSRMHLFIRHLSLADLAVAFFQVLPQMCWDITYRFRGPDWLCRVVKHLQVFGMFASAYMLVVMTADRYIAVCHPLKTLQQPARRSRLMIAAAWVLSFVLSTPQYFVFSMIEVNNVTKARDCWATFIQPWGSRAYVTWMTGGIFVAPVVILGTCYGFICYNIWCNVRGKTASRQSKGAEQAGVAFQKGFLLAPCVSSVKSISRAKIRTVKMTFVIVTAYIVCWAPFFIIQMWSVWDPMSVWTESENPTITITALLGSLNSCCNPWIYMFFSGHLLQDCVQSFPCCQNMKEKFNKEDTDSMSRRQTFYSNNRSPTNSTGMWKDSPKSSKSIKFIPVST

A word on the AC50: it is the midpoint of the concentration-response curve, whichever way the signal moves. Low readings indicate activity at low concentration, high ones activity only at high concentration. Consider `C[C@]1(COc2ccc(N3CCC(Oc4ccc(OC(F)(F)F)cc4)CC3)cc2)Cn2cc([N+](=O)[O-])nc2O1`, for which the AC50 in test [1] is > 10 µM; at Estrogen receptor it was > 30 µM; on Histamine H1 receptor, > 10 µM; at Vasopressin V1a receptor, > 10 µM.

Regarding `C[C@]12CC[C@H](O)CC1=CC[C@@H]1[C@@H]2CC[C@]2(C)C(c3cccnc3)=CC[C@@H]12` [ABIRATERONE], the AC50 in test [2] is > 30 µM; in test [1], > 10 µM; on Estrogen receptor, > 30 µM; at Histamine H1 receptor, > 10 µM; at Vasopressin V1a receptor, > 30 µM.

`CC(=O)OCC[N+](C)(C)C` [ACETYLCHOLINE]: the AC50 is > 30 µM in test [2]; 29 µM at Progesterone receptor; > 10 µM at Histamine H1 receptor; > 30 µM at Cannabinoid receptor 1; > 30 µM at Vasopressin V1a receptor.

As for `O=C(Nc1nc(-c2cc(Cl)cs2)c(N2CCN(C3CCCCC3)CC2)s1)c1cnc(N2CCC(C(=O)O)CC2)c(Cl)c1` [AVATROMBOPAG], the AC50 (in test [2]; in test [1]; at Histamine H1 receptor; on Vasopressin V1a receptor) was > 10 µM in each case.

Turning to `CN(C)C(=O)Oc1cc(OC(=O)N(C)C)cc(C(O)CNC(C)(C)C)c1` (stereo not given) [BAMBUTEROL], the AC50 (in test [2]; on Progesterone receptor; on Estrogen receptor; on Vasopressin V1a receptor) was > 30 µM in each case.

Consider `C[C@H]1C[C@H]2[C@@H]3CCC4=CC(=O)C=C[C@]4(C)[C@@]3(Cl)[C@@H](O)C[C@]2(C)[C@@]1(O)C(=O)CO` [BECLOMETHASONE], for which the AC50 in test [2] was > 30 µM; on Estrogen receptor it was > 30 µM; on Vasopressin V1a receptor, > 10 µM.

For `CO[C@@]1(NC(=O)CSCC#N)C(=O)N2C(C(=O)O)=C(CSc3nnnn3C)CS[C@@H]21` [CEFMETAZOLE], the concentration at half-maximal activity (AC50) on Cannabinoid receptor 1 was > 30 µM.

With `CO/N=C(\C(=O)N[C@@H]1C(=O)N2C(C(=O)[O-])=C(C[n+]3cccc4c3CCC4)CS[C@H]12)c1csc(N)n1` [CEFPIROME], the AC50 (in test [1]; at Histamine H1 receptor; on Cannabinoid receptor 1) was > 30 µM in each case.

With `NS(=O)(=O)c1cc(C2(O)NC(=O)c3ccccc32)ccc1Cl` (stereo not given) [CHLORTHALIDONE], the concentration at half-maximal activity (AC50) (in test [2]; on Progesterone receptor) was > 10 µM throughout.

Turning to `CC[C@H]1OC(=O)[C@H](C)[C@@H](O[C@H]2C[C@@](C)(OC)[C@@H](O)[C@H](C)O2)[C@H](C)[C@@H](O[C@@H]2O[C@H](C)C[C@H](N(C)C)[C@H]2O)[C@](C)(OC)C[C@@H](C)C(=O)[C@H](C)[C@@H](O)[C@]1(C)O` [CLARITHROMYCIN], the AC50 (in test [2]; at Progesterone receptor; at Cannabinoid receptor 1; on Vasopressin V1a receptor) was > 30 µM in each case.

On to `Oc1c(I)cc(Cl)c2cccnc12` [CLIOQUINOL], for which the AC50 (in test [1]; at Histamine H1 receptor; on Cannabinoid receptor 1) was > 30 µM throughout.

As to `COc1ccc2c(c1)[C@]13CCCC[C@@H]1[C@H](C2)N(C)CC3` [DEXTROMETHORPHAN], the half-maximal activity concentration (AC50) in test [2] was > 30 µM; on Estrogen receptor, > 30 µM; on Vasopressin V1a receptor, > 10 µM.

For `O=c1oc2ccccc2c(O)c1Cc1c(O)c2ccccc2oc1=O` [DICUMAROL], the AC50 (in test [2]; at Progesterone receptor) was > 10 µM each time.

On to `CCn1cc(C(=O)O)c(=O)c2cc(F)c(N3CCNCC3)nc21` [ENOXACIN], for which the values for the AC50 (in test [2]; at Estrogen receptor; at Vasopressin V1a receptor) were > 30 µM, > 30 µM and > 10 µM, respectively.

On to `O=C(O)CSCC(=O)NC1CCSC1=O` (stereo not given) [ERDOSTEINE], for which the AC50 (in test [2]; at Progesterone receptor; in test [1]; at Histamine H1 receptor; on Cannabinoid receptor 1; at Vasopressin V1a receptor) was > 30 µM throughout.

`C#C[C@]1(O)CC[C@H]2[C@@H]3CCc4cc(OC)ccc4[C@H]3CC[C@@]21C` [MESTRANOL]: the figures for the AC50 (in test [2]; at Progesterone receptor; on Estrogen receptor) were > 30 µM, 0.096 µM and 0.136 µM, respectively.

For `N=C(N)c1ccc2cc(OC(=O)c3ccc(N=C(N)N)cc3)ccc2c1` [NAFAMOSTAT], the half-maximal activity concentration (AC50) on Progesterone receptor was > 30 µM; in test [1], 8.7 µM; at Histamine H1 receptor it was > 30 µM; at Cannabinoid receptor 1 it was > 30 µM; on Vasopressin V1a receptor, > 30 µM.

Take `CNC(=O)Oc1ccc2c(c1)[C@]1(C)CCN(C)[C@@H]1N2C` [PHYSOSTIGMINE]: the AC50 (in test [2]; at Progesterone receptor; at Estrogen receptor; on Cannabinoid receptor 1; on Vasopressin V1a receptor) was > 30 µM throughout.

As for `O=C(O)c1cc(O)c2c3nc4ccccc4oc-3cc(=O)c2n1` [PIRENOXINE], the AC50 in test [2] was > 30 µM; at Progesterone receptor, > 30 µM; in test [1], 6.7 µM; on Histamine H1 receptor, 11 µM; at Cannabinoid receptor 1, > 30 µM; on Vasopressin V1a receptor it was > 30 µM.

For `CNCCCC1c2ccccc2C=Cc2ccccc21` [PROTRIPTYLINE], the AC50 is > 30 µM in test [2], > 10 µM on Progesterone receptor, > 10 µM at Estrogen receptor and > 10 µM at Vasopressin V1a receptor.

For `COCCCOc1ccnc(C[S+]([O-])c2nc3ccccc3[nH]2)c1C` (stereo not given) [RABEPRAZOLE], the AC50 in test [2] is > 30 µM; on Vasopressin V1a receptor, > 10 µM.

Turning to `O=C(CCCN1CCC2(CC1)C(=O)NCN2c1ccccc1)c1ccc(F)cc1` [SPIPERONE], the AC50 at Progesterone receptor is > 30 µM; in test [1], > 30 µM; at Histamine H1 receptor it was 1.4 µM; at Cannabinoid receptor 1 it was > 30 µM; on Vasopressin V1a receptor, > 30 µM.

`CCSc1ccc2c(c1)N(CCCN1CCN(C)CC1)c1ccccc1S2` [THIETHYLPERAZINE]: the AC50 is > 30 µM at Progesterone receptor, 16 µM in test [1] and 0.17 µM at Histamine H1 receptor.

Take `OCCN1CCN(CC/C=C2/c3ccccc3Sc3ccc(Cl)cc32)CC1` [ZUCLOPENTHIXOL]: the concentration at half-maximal activity (AC50) is > 30 µM in test [2]; > 10 µM on Progesterone receptor; > 10 µM in test [1]; 0.028 µM on Histamine H1 receptor; > 10 µM at Vasopressin V1a receptor.
